{"source": "paper PMC5698704", "about": "(Chemmedchem, 2017)", "key": {"MOLM‐13 human AML model": {"tested_on": "MOLM‐13 human AML model", "test": "MOLM‐13 human AML xenograft model in mice", "assay_type": "in vivo, mouse", "conditions": "throughout the study, all BAY 1143572 regimens"}, "CDK3/cyclinE(h)": {"molecular_target": "CDK3/cyclinE(h) (Homo sapiens, UniProt Q00526)", "sequence (Q00526 whole entry)": "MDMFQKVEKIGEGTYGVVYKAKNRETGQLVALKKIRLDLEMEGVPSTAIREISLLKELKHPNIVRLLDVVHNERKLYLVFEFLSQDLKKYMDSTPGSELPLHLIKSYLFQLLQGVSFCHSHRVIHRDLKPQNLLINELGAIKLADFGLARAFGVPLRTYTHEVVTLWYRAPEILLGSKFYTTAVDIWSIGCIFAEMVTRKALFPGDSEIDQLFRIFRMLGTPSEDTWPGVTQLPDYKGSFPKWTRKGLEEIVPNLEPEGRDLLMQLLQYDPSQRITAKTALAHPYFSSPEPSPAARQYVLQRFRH", "sequence (P24864 whole entry, further chain)": "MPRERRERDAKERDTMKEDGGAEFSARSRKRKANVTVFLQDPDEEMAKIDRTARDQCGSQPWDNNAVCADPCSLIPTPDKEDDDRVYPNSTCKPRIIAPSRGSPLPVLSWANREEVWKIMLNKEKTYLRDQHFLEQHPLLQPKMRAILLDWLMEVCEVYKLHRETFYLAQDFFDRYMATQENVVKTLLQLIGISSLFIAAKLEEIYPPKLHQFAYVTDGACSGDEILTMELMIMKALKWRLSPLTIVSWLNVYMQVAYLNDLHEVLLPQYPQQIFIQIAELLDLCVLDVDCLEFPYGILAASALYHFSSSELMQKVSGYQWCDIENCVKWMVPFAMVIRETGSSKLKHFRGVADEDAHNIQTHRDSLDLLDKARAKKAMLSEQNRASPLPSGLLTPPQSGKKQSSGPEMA", "test": "Merck Millipore KinaseProfiler", "assay_type": "biochemical", "conditions": "IC50 CDK3/CycE(h), Millipore panel, 10 µM ATP"}, "[1]": {"tested_on": "CYP1A2, CYP2C8, CYP2C9, CYP2D6, CYP3A4", "test": "CYP inhibition in human liver microsomes", "assay_type": "in vitro ADME"}, "MV4‐11 cells": {"tested_on": "MV4‐11 cells", "test": "Antiproliferative activity MV4‐11", "assay_type": "cell-based", "conditions": "Homo sapiens, MV4-11, read-out: MV4‐11 IC50"}, "MOLM‐13 cells": {"tested_on": "MOLM‐13 cells", "test": "Proliferation assay MOLM‐13", "assay_type": "cell-based", "conditions": "Homo sapiens, MOLM-13, 96 h, read-out: MOLM‐13 IC50"}, "Flt3(h)": {"molecular_target": "T1, Flt3(h) (Homo sapiens, UniProt P36888)", "T1 sequence (P36888 27-993)": "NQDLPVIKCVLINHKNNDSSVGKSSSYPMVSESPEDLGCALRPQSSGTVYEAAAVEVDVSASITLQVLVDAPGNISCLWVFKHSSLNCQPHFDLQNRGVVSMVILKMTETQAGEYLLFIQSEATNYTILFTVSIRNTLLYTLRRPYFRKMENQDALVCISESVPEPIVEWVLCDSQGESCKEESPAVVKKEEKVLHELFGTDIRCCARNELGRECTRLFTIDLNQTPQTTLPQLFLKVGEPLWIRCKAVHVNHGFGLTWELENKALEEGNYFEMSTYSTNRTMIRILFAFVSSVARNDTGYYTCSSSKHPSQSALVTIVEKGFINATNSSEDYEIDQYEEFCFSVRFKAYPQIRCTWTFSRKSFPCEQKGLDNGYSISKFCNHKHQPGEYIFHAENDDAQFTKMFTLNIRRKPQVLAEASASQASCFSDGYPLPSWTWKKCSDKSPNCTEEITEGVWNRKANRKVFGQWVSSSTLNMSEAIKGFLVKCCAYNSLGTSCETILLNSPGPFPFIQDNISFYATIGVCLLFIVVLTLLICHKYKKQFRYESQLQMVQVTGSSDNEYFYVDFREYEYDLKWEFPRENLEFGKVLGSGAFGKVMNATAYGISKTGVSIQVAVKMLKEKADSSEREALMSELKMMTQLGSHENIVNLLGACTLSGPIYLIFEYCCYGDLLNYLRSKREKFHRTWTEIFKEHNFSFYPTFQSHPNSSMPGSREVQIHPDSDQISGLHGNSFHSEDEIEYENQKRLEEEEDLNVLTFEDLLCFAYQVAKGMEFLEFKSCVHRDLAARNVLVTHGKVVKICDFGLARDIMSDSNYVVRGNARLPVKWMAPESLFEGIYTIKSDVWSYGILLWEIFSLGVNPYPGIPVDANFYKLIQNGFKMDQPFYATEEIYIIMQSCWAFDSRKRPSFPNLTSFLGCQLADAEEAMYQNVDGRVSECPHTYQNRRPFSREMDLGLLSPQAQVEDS", "test": "Merck Millipore KinaseProfiler", "assay_type": "biochemical", "conditions": "Merck Millipore KinaseProfiler panel"}, "[2]": {"test": "Equilibrium shake flask solubility assay", "assay_type": "physicochemical", "conditions": "aqueous solubility, phosphate buffer pH 6.5, 24 h; solid state not characterized"}, "[3]": {"test": "MV4‐11 human AML xenograft model in rats", "assay_type": "in vivo, rat", "conditions": "female, athymic nude, rat, in vivo, po, 12 mg kg^−1"}, "MV4‐11 human AML model": {"tested_on": "MV4‐11 human AML model", "test": "MV4‐11 human AML xenograft model in rats", "assay_type": "in vivo, rat"}, "HeLa cells": {"tested_on": "HeLa cells", "test": "Proliferation assay HeLa", "assay_type": "cell-based", "conditions": "Homo sapiens, 96 h, read-out: HeLa IC50"}, "CYP3A4": {"tested_on": "CYP3A4", "test": "CYP induction in cultured human hepatocytes", "assay_type": "in vitro ADME"}, "CDK6/cyclinD3(h)": {"molecular_target": "CDK6/cyclinD3(h) (Homo sapiens, UniProt Q00534)", "sequence (Q00534 whole entry)": "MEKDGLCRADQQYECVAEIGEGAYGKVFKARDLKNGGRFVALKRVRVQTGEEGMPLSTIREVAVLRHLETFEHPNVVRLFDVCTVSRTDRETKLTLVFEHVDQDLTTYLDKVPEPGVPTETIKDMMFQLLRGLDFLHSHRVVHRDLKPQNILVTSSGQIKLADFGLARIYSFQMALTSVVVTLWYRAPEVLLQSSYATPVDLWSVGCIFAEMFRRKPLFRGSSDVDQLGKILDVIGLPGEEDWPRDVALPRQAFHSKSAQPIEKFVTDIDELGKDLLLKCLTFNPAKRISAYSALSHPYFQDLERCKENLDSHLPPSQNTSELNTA", "sequence (P30281 whole entry partner)": "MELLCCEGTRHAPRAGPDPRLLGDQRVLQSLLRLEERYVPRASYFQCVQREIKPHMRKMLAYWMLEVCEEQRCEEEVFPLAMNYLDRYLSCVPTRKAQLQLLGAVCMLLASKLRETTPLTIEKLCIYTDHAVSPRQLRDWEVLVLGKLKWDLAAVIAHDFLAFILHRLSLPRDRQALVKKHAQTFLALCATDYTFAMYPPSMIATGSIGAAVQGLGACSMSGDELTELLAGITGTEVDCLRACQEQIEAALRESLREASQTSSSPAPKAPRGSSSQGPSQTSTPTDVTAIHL", "test": "Merck Millipore KinaseProfiler", "assay_type": "biochemical"}, "CDK5/p35(h)": {"molecular_target": "CDK5/p35(h) (Homo sapiens, UniProt Q00535)", "sequence (Q00535 whole entry)": "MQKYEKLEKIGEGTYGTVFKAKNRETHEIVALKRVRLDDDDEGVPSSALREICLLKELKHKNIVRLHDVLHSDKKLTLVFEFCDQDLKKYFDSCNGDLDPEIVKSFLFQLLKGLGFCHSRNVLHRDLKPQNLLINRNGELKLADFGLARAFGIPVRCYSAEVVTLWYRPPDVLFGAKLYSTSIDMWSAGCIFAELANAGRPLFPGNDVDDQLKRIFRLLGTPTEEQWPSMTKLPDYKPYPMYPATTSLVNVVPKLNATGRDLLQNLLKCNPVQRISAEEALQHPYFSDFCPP", "sequence (Q15078 whole entry partner)": "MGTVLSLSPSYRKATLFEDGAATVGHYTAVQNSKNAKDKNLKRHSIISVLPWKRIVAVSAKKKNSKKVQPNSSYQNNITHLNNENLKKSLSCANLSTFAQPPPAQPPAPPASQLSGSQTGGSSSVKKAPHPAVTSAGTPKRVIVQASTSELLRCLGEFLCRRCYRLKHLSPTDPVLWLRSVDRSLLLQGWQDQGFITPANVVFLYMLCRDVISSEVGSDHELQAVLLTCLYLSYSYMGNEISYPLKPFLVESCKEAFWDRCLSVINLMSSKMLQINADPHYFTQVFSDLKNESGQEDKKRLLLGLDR", "test": "Merck Millipore KinaseProfiler", "assay_type": "biochemical", "conditions": "Millipore panel, 10 µM ATP"}, "CDK7/cyclinH/MAT1(h)": {"molecular_target": "CDK7/cyclinH/MAT1(h) (Homo sapiens, UniProt P50613)", "sequence (P50613 whole entry)": "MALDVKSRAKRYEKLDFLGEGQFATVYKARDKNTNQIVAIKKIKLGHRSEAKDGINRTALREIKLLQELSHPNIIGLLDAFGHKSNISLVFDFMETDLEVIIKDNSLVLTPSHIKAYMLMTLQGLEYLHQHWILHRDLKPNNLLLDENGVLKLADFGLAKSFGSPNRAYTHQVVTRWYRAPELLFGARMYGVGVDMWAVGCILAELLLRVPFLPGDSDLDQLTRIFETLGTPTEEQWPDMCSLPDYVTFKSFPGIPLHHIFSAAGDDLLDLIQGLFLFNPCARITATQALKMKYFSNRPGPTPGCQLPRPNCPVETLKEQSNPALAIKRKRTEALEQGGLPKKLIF", "sequence (P51946 whole entry partner)": "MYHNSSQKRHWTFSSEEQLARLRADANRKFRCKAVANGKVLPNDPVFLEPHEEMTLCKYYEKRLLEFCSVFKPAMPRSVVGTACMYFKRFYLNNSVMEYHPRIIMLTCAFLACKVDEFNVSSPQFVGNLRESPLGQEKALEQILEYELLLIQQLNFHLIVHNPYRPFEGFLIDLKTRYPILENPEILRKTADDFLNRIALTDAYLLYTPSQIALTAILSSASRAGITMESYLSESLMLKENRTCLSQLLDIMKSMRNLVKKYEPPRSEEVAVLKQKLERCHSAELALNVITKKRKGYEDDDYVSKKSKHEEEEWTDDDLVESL", "sequence (P51948 whole entry partner)": "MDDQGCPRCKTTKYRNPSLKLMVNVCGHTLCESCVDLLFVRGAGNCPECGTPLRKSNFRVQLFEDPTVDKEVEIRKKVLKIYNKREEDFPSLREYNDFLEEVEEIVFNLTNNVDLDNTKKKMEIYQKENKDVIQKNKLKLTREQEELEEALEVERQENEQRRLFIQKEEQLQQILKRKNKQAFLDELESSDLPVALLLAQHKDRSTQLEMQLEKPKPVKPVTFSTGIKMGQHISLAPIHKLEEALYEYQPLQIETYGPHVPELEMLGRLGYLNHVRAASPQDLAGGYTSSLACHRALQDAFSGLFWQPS", "test": "Merck Millipore KinaseProfiler", "assay_type": "biochemical"}, "CDK9/cyclin T1(h)": {"molecular_target": "CDK9/cyclin T1(h) (Homo sapiens, UniProt P50750)", "sequence (P50750 whole entry)": "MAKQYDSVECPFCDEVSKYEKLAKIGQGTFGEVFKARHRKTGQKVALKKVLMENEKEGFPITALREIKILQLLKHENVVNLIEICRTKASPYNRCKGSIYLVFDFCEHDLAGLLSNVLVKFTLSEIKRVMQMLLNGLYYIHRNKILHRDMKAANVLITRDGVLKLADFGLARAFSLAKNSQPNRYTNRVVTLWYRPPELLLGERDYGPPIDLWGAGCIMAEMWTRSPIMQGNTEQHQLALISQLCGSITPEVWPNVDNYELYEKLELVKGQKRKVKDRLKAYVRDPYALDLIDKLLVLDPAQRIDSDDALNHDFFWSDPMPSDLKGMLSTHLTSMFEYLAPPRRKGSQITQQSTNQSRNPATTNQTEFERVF", "sequence (O60563 whole entry partner)": "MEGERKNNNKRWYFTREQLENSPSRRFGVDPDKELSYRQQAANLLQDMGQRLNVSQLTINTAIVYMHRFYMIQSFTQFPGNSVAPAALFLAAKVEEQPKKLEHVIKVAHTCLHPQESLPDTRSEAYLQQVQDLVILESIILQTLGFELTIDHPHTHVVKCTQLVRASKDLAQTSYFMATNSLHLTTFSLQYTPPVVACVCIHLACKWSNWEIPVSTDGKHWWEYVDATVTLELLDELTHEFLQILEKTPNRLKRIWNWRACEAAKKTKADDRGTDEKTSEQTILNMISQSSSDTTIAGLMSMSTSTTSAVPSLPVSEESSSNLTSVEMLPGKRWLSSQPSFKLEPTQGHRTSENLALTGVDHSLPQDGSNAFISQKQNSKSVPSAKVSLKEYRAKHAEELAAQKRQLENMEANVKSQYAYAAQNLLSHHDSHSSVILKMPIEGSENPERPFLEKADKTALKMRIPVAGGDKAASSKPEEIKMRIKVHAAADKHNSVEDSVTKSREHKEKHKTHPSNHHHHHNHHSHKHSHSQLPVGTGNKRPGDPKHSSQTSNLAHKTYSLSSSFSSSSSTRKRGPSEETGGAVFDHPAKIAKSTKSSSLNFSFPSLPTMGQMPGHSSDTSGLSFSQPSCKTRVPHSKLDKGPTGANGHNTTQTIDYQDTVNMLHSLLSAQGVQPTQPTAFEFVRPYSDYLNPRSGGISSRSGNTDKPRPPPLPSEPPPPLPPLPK", "test": "Merck Millipore KinaseProfiler", "assay_type": "biochemical"}, "rat hepatocytes": {"tested_on": "rat hepatocytes", "test": "Metabolic stability in rat hepatocytes", "assay_type": "in vitro ADME", "conditions": "predicted blood clearance from rat hepatocytes, 1 μM"}, "[4]": {"test": "Metabolic stability in rat liver microsomes", "assay_type": "in vitro ADME", "conditions": "predicted blood clearance from rat liver microsomes"}, "CDK1/cyclinB(h)": {"molecular_target": "CDK1/cyclinB(h) (Homo sapiens, UniProt P06493)", "sequence (P14635 whole entry)": "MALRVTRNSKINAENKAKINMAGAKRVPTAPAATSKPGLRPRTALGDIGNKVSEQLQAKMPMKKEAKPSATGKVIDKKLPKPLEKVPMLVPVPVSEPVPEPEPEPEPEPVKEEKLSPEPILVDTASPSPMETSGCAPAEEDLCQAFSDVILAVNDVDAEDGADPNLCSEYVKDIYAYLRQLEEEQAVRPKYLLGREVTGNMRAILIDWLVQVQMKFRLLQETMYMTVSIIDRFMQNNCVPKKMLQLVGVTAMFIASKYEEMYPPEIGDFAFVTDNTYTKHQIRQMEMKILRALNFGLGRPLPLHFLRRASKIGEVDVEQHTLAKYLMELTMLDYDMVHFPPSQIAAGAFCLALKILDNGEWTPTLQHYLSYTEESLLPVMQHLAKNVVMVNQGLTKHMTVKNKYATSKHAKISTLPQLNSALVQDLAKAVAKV", "sequence (P06493 whole entry)": "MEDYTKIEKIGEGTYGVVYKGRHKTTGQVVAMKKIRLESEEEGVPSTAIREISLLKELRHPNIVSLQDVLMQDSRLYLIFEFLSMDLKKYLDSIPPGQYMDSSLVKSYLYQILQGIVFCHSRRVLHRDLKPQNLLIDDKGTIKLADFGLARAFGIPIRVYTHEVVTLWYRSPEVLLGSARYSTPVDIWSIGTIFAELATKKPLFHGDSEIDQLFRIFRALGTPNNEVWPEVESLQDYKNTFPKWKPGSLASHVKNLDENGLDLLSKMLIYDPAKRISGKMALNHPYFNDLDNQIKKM", "test": "Merck Millipore KinaseProfiler", "assay_type": "biochemical", "conditions": "IC50 CDK1/CycB(h), Millipore panel, 10 µM ATP"}, "CDK2/cyclinE(h)": {"molecular_target": "CDK2/cyclinE(h) (Homo sapiens, UniProt P24941)", "test": "Merck Millipore KinaseProfiler", "assay_type": "biochemical", "conditions": "IC50 CDK2/CycE(h), Millipore panel, 10 µM ATP"}, "CDK2/CycE": {"tested_on": "CDK2/CycE", "test": "CDK2/CycE kinase assay", "assay_type": "biochemical, human", "conditions": "ratio of IC50 values CDK2/CDK9, in-house assays"}, "[5]": {"test": "Caco‐2 permeability assay", "assay_type": "in vitro ADME", "conditions": "human, Caco-2, pH 7.2"}, "[6]": {"test": "Blood/plasma partitioning in rats", "assay_type": "in vitro ADME", "conditions": "rat, blood and plasma"}}, "note": "Several values for one entry are separate records, joined by “and”; a condition that tells them apart may be missing. Equal values may be shown once.", "data": [{"smiles": "COc1cc(F)ccc1-c1ncnc(Nc2cccc(C[S@](C)(=N)=O)c2)n1", "note": "[BAY 1143572, (R)‐4‐(4‐Fluoro‐2‐methoxyphenyl)‐N‐{3‐[(S‐methylsulfonimidoyl)methyl]phenyl}‐1,3,5‐triazin‐2‐amine]", "values": [{"measurement": "CLb, rat in vivo, i.v.", "setting": "Rat PK study in vivo", "value": 1.1, "unit": "L/h/kg"}, {"measurement": "mean body weight reduction", "setting": "MOLM‐13 human AML model", "value": "less than 10%"}, {"measurement": "IC50", "setting": "CDK3/cyclinE(h)", "value": 890, "unit": "nM"}, {"measurement": "IC50", "setting": "[1]", "value": "> 20", "unit": "µM"}, {"measurement": "IC50", "setting": "MV4‐11 cells", "value": 890, "unit": "nM"}, {"measurement": "IC50", "setting": "MOLM‐13 cells", "value": 310, "unit": "nM"}, {"measurement": "activity against Flt3", "setting": "Flt3(h)", "value": "did not show relevant activity"}, {"measurement": "Sw, pH 6.5", "setting": "[2]", "value": 479, "unit": "mg L^−1"}, {"measurement": "MTD at 14 days", "setting": "[3]", "value": 12, "unit": "mg/kg"}, {"measurement": "tumor response", "setting": "MV4‐11 human AML model; 12 mg kg^−1 daily oral for 14 days", "value": "almost complete tumor remission"}, {"measurement": "tumor regrowth at the conclusion of the experiment", "setting": "MV4‐11 human AML model; 57 days after initial inoculation, after 12 mg kg^−1 daily for 14 days", "value": "no tumor regrowth in nine of the 12 test animals"}, {"measurement": "IC50", "setting": "HeLa cells", "value": 920, "unit": "nM"}, {"measurement": "Induction of CYP3A4 in vitro", "setting": "CYP3A4", "value": "not observed"}]}, {"smiles": "COc1cc(F)ccc1-c1ncnc(Nc2cccc(CS(N)(=O)=O)c2)n1", "note": "[BAY‐958, 1‐(3‐{[4‐(4‐Fluoro‐2‐methoxyphenyl)‐1,3,5‐triazin‐2‐yl]amino}phenyl)methanesulfonamide]", "values": [{"measurement": "CLb, rat in vivo, i.v.", "setting": "Rat PK study in vivo", "value": "0.5 L/h/kg and 0.50 L/h/kg"}, {"measurement": "half-life", "setting": "Rat PK study in vivo; male, Wistar, plasma, iv", "value": 42, "unit": "min"}, {"measurement": "F, rat in vivo, p.o.", "setting": "Rat PK study in vivo; oral bioavailability", "value": 10, "unit": "%"}, {"measurement": "IC50", "setting": "CDK6/cyclinD3(h)", "value": 4.4, "unit": "µM"}, {"measurement": "IC50", "setting": "CDK3/cyclinE(h)", "value": 570, "unit": "nM"}, {"measurement": "IC50", "setting": "[1]", "value": "> 20", "unit": "µM"}, {"measurement": "IC50", "setting": "CDK5/p35(h)", "value": 800, "unit": "nM"}, {"measurement": "IC50", "setting": "CDK7/cyclinH/MAT1(h)", "value": "> 10", "unit": "µM"}, {"measurement": "IC50", "setting": "MOLM‐13 cells", "value": 280, "unit": "nM"}, {"measurement": "IC50", "setting": "CDK9/cyclin T1(h)", "value": 5, "unit": "nM"}, {"measurement": "selectivity vs. other CDKs", "setting": "CDK9/cyclin T1(h); Millipore panel, relative to CDK9/CycT1 IC50", "value": "> 90"}, {"measurement": "CLb, ratHep", "setting": "rat hepatocytes", "value": 0.33, "unit": "L/h/kg"}, {"measurement": "CLb, ratLM", "setting": "[4]", "value": 0.48, "unit": "L/h/kg"}, {"measurement": "IC50", "setting": "HeLa cells", "value": 1000, "unit": "nM"}, {"measurement": "Induction of CYP3A4 in vitro", "setting": "CYP3A4", "value": "not observed"}, {"measurement": "IC50", "setting": "CDK1/cyclinB(h)", "value": 690, "unit": "nM"}, {"measurement": "IC50", "setting": "CDK2/cyclinE(h)", "value": 470, "unit": "nM"}, {"measurement": "Selectivity vs. CDK2, ratio of IC50 values", "setting": "CDK2/CycE", "value": 98}, {"measurement": "efflux ratio at 2 h, 2 μM", "setting": "[5]", "value": 15}, {"measurement": "blood plasma ratio", "setting": "[6]", "value": 3}]}]}
